{"source": "patent US6740637B1", "about": "“Chlorophyll and bacteriochlorophyll derivatives, their preparation and pharmaceutical compositions comprising them” (priority 1998, dated 2004)", "key": {"[1]": {"conditions": "cited from earlier work"}, "[2]": {"conditions": "in vivo; cited from earlier work"}, "[3]": {"system": "Staphylococcus Aureus Cowan I", "type": "cell-based", "protocol": "Light source: All the phototoxicity assays were performed with a home-built Xenon lamp with vertical emission providing 140 mW/cm^2 at the target level, using glass or a Cr2K2O7 liquid filter transferring light at […].\nBacterial culture: Lyophilized Staphylococcus Aureus Cowan I, kindly provided by Prof. Z. Eshar, the Weizmann Institute, Israel were grown in liquid brain heart infusion (BHI) media for 18 hours at 37° C. with continuous shaking.\nPhototoxicity experiments: The standard experimental design consisted of four discrete steps: (i) Pre-incubation: Fresh bacterial suspensions (200 μl) in 0.1M carbonate buffer, pH 8.6, were incubated with the test sensitizer and/or inhibitor at the indicated concentrations for 1 hour in the dark. (ii) Wash: Unbound sensitizer was removed by washing and resuspension in the same buffer (x3). (iii) Illumination: The bacterial suspensions were exposed to light (140 mW/cm^2, λ>550 nm) for 5 min. (iv) Assessment of survival: Samples of the bacterial suspensions (30 μl) were cultured in 2 ml of BHI liquid media at 37° C. (shaking) for 2 hr. Bacterial density was monitored by turbidity measurements at λ=660 nm, taking OD660=1 for 5×10^7 bacteria/ml. Each experiment consisted of one experimental and three control groups:\nExperimental group: Bacteria were subjected to complete treatment (varying one experimental factor). Light control: irradiated bacteria, not treated with sensitizer. Dark control: non-irradiated bacteria, treated with sensitizer in the dark. Untreated control: values used for calculation of 100% survival."}, "[4]": {"system": "MR2 melanoma tumors", "test": "Photodynamic treatment of melanoma tumor implanted in CD1 nude mouse, MRI follow up", "type": "in vivo", "protocol": "(a) Tumor implantation: M2R cells are routinely maintained as monolayers. The cells are scraped with the aid of a rubber policeman and suspended in normal saline, 1×10^6 cells/0.1 ml are injected subcutaneously on the flank or batch of C57Bl or CD1 nude male mice. […] A similar procedure is used in nude mice in which either mouse M2R or human (FO/1, MRI/H/221, HS695T amelanotic melanoma or SK/MEL/28) melanoma tumors are implanted."}, "[5]": {"system": "cell cultures", "conditions": "cited from earlier work"}, "[6]": {"system": "C57Bl mice", "test": "Toxicity of serine conjugates in mice in the absence of irradiation", "type": "in vivo, mouse", "conditions": "injections of up to 40 mg/kg body weight, up to 14 days, no irradiation", "protocol": "(d) Toxicity of the Chl and Bchl-serine conjugates Chla-L-Ser-OMe and Bchla-L-Ser-OMe in C57Bl mice under normal housing conditions in the absence of irradiation was estimated by injection of the compound dissolved in 10% ethanol/PBS. Control mice were injected with the vehicle only. […] This dose of drug was thus far the highest used and LD50 vs. EC50 of treatment (margins of therapeutic index) have yet to be determined."}}, "note": "Entries after “also recorded” stand apart in the source; their conditions may differ."}
{"compound": "CC[C@H]1c2cc3[n-]c4c(c3C)C(=O)[C@H](C(=O)OC)c4c3nc(cc4[n-]c(cc(n2)[C@@H]1C)c(C(C)=O)c4C)[C@@H](C)[C@@H]3CCC(=O)OC[C@H](N)C(=O)OC.[Mg+2]", "note": "[Bchla-L-Ser-OMe, L-seryl Methyl Ester Bacteriochlorophyllide a]", "values": [{"measurement": "water solubility", "setting": "[1]", "value": "water soluble"}, {"measurement": "clearance from the animal body", "setting": "[2]", "value": 16, "unit": "h"}, {"measurement": "concentration of maximal phototoxicity", "setting": "[3]", "value": 0.5, "unit": "µM"}, {"measurement": "phototoxicity LD50", "setting": "[3]; as described in Example 17", "value": 70, "unit": "nM"}, {"measurement": "dark toxicity", "setting": "[3]; no light, up to highest tested concentration (10 μM)", "value": "no detectable dark toxicity"}, {"measurement": "tumor by MRI after first treatment", "setting": "[4]; 50-150 μg into and around tumor, halogen light 60 min, 84 h later", "value": "essentially eliminated"}, {"measurement": "tumor recurrence by MRI after second treatment", "setting": "[4]; after a second treatment (2-3 weeks later)", "value": "no recurrence"}, {"measurement": "tumor recurrence by MRI after first treatment", "setting": "[4]; two weeks after first treatment", "value": "small recurrence; also recorded: some recurrence"}, {"measurement": "LD50 (phototoxicity in cell cultures)", "setting": "[5]", "value": 50, "unit": "nM"}, {"measurement": "effect on behavior and well being of mice", "setting": "[6]", "value": "no noticeable effect on the behavior and well being of the mice"}]}
